Literature values in patent US8426341B2, “Herbicide formulation” (priority 2005, dated 2013).

Details: acid form / neutral form equilibrium; exemplary values

| Compound | pKas (single or first listed value) |
| --- | --- |
| O=C(O)COc1nc(Cl)c(Cl)cc1Cl [Triclopyr, 3,5,6-trichloro-2-pyridyloxyacetic acid] | 2.68 |
| O=C(O)c1c(Cl)ccc2cc(Cl)cnc12 [Quinclorac] | 4.34 |
| N#Cc1cc(Br)c(O)c(Br)c1 [Bromoxynil] | 4.06 |
| CP(=O)(O)CCC(N)C(=O)O (centres unmarked) [Glufosinate] | 2 |
| CC(C)N1C(=O)c2ccccc2NS1(=O)=O [Bentazon] | 3.30 |
| Imazamethbenz | 2.9 |
| O=C(O)c1cc(Oc2ccc(C(F)(F)F)cc2Cl)ccc1[N+](=O)[O-] [Acifluorfen] | 3.86 |
| COc1c(Cl)ccc(Cl)c1C(=O)O [Dicamba, 3,6-dichloro-O-anisic acid] | 1.87 |
| Nc1c(Cl)c(Cl)nc(C(=O)O)c1Cl [Picloram] | 2.3 |
| CC(C)C1(C)N=C(c2nc3ccccc3cc2C(=O)O)NC1=O (centres unmarked) [Imazaquin] | 3.8 |
| CC(Oc1ccc(Oc2ccc(Cl)cc2Cl)cc1)C(=O)O (centres unmarked) [Diclofop] | 3.57 |
| C[C@@H](Oc1ccc(Oc2ccc(C(F)(F)F)cn2)cc1)C(=O)O [Fluazifop-p] | 2.98 |
| C[C@@H](Oc1ccc(Oc2cnc3cc(Cl)ccc3n2)cc1)C(=O)O [Quizalofop-p] | 1.25 |
| CC(Oc1ccc(Oc2ncc(C(F)(F)F)cc2Cl)cc1)C(=O)O (centres unmarked) [Haloxyfop] | 2.9 |
| O=C(O)CCCOc1ccc(Cl)cc1Cl [2,4-DB] | 4.8 |

Same assay, conditions: second value for compounds with more than one acidic hydrogen

| Compound | pKas (second listed value) |
| --- | --- |
| O=C(O)COc1nc(Cl)c(Cl)cc1Cl [Triclopyr, 3,5,6-trichloro-2-pyridyloxyacetic acid] | 3.97 |
| CP(=O)(O)CCC(N)C(=O)O (centres unmarked) [Glufosinate] | 2.9 |
